Test results taken from ChEMBL document CHEMBL1201862, “PubChem BioAssay data set” (2004).
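Method: 48-hour compound exposure of cells in 96-well plates, five concentrations, linear interpolation of endpoints. GI50 is the concentration that inhibits growth by half.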 Active and inactive are the calls of the source. No stated cut-off is given here; in the data, active = GI50 up to about 1.1 µM and inactive = higher.

What was measured:
Assay in all cases: growth of human tumour cells (NCI), 48 h
DMS-273 = system: DMS-273
SF-295 = system: SF-295
HCC 2998 = system: HCC 2998
CAKI-1 = system: CAKI-1
ACHN = system: ACHN
IGROV-1 = system: IGROV-1
DMS-114 = system: DMS-114
NCI-H23 = system: NCI-H23
DLD-1 = system: DLD-1
HCT-116 = system: HCT-116
HT-29 = system: HT-29
NCI-H460 = system: NCI-H460
TK-10 = system: TK-10
CCRF-CEM = system: CCRF-CEM
SNB-75 = system: SNB-75
LOX IMVI = system: LOX IMVI
HOP-92 = system: HOP-92
NCI-H226 = system: NCI-H226
RXF 393 = system: RXF 393
COLO 205 = system: COLO 205
XF498 = system: XF498
RXF 631 = system: RXF 631
A549 = system: A549
NCI-H522 = system: NCI-H522
OVCAR-5 = system: OVCAR-5
SF-268 = system: SF-268
HCT-15 = system: HCT-15
SN12C = system: SN12C
U-251 = system: U-251
UO-31 = system: UO-31
UACC-257 = system: UACC-257
KM12 = system: KM12
K562 = system: K562
MOLT-4 = system: MOLT-4
EKVX = system: EKVX
Malme-3M = system: Malme-3M
UACC-62 = system: UACC-62
LXFL 529 = system: LXFL 529
SK-OV-3 = system: SK-OV-3
SNB-19 = system: SNB-19
SW-620 = system: SW-620
M14 = system: M14
SK-MEL-28 = system: SK-MEL-28
KM-20L2 = system: KM-20L2
SF-539 = system: SF-539
OVCAR-8 = system: OVCAR-8
786-0 = system: 786-0
SK-MEL-2 = system: SK-MEL-2
OVCAR-3 = system: OVCAR-3
SR = system: SR
OVCAR-4 = system: OVCAR-4
SK-MEL-5 = system: SK-MEL-5
HL-60 = system: HL-60
HOP-62 = system: HOP-62
RPMI-8226 = system: RPMI-8226

With `C=C(CS(=O)(=O)c1ccccc1)C(=O)OCC` the GI50 (DMS-273) was 16.4 µM (inactive), the GI50 (SF-295) was 18.1 µM (inactive) and the GI50 (HCC 2998) was 19.4 µM (inactive). For the same compound, the GI50 (CAKI-1) was 18 µM (inactive), the GI50 (ACHN) was 15.5 µM (inactive) and the GI50 (IGROV-1) was 19 µM (inactive). For the same compound, the GI50 (DMS-114) was 5.37 µM (inactive), the GI50 (NCI-H23) was 18.2 µM (inactive) and the GI50 (DLD-1) was 4.49 µM (inactive). The GI50 (HCT-116) was 13.4 µM (inactive), the GI50 (HT-29) was 11.2 µM (inactive) and the GI50 (NCI-H460) was 18.7 µM (inactive). The GI50 (TK-10) was 17.4 µM (inactive), the GI50 (CCRF-CEM) was 2.77 µM (inactive) and the GI50 (SNB-75) was 17.4 µM (inactive). The GI50 (LOX IMVI) was 10.5 µM (inactive), the GI50 (HOP-92) was 21.4 µM (inactive) and the GI50 (NCI-H226) was 25.1 µM (inactive). For the same compound, the GI50 (RXF 393) was 11.7 µM (inactive), the GI50 (COLO 205) was 18.9 µM (inactive) and the GI50 (XF498) was 19.2 µM (inactive). The GI50 (RXF 631) was 1.9 µM (inactive), the GI50 (A549) was 18.5 µM (inactive) and the GI50 (NCI-H522) was 3.41 µM (inactive). The GI50 (OVCAR-5) was 19.6 µM (inactive), the GI50 (SF-268) was 19.6 µM (inactive) and the GI50 (HCT-15) was 12.6 µM. The GI50 (SN12C) was 16.3 µM (inactive), the GI50 (U-251) was 16.9 µM (inactive) and the GI50 (UO-31) was 20 µM (inactive). The GI50 (UACC-257) was 12.8 µM (inactive), the GI50 (KM12) was 16.1 µM (inactive) and the GI50 (K562) was 5.33 µM (inactive). For the same compound, the GI50 (MOLT-4) was 2.81 µM (inactive), the GI50 (EKVX) was 19.7 µM (inactive) and the GI50 (Malme-3M) was 16.1 µM (inactive). For the same compound, the GI50 (UACC-62) was 4.74 µM (inactive), the GI50 (LXFL 529) was 13.4 µM (inactive) and the GI50 (SK-OV-3) was 14.4 µM (inactive). The GI50 (SNB-19) was 20 µM (inactive), the GI50 (SW-620) was 10.5 µM (inactive) and the GI50 (M14) was 11.6 µM (inactive). For the same compound, the GI50 (SK-MEL-28) was 15.1 µM (inactive), the GI50 (KM-20L2) was 21.8 µM (inactive) and the GI50 (SF-539) was 17.1 µM (inactive). The GI50 (OVCAR-8) was 10.5 µM (inactive), the GI50 (786-0) was 17.3 µM (inactive) and the GI50 (SK-MEL-2) was 15.6 µM (inactive). The GI50 (OVCAR-3) was 13.4 µM (inactive).

`CCCCCCc1cc(C(=O)Nc2ccc(Cl)cc2)nc(S)n1` was tested, and the GI50 (CAKI-1) was > 100 µM (inactive), the GI50 (IGROV-1) was > 100 µM (inactive) and the GI50 (NCI-H23) was > 100 µM (inactive). For the same compound, the GI50 (DLD-1) was > 10 µM (inactive), the GI50 (NCI-H460) was > 10 µM (inactive) and the GI50 (CCRF-CEM) was > 100 µM (inactive). The GI50 (SR) was > 100 µM (inactive), the GI50 (HOP-92) was > 100 µM (inactive) and the GI50 (NCI-H226) was > 10 µM (inactive). For the same compound, the GI50 (RXF 393) was > 10 µM (inactive), the GI50 (XF498) was > 10 µM (inactive) and the GI50 (RXF 631) was > 100 µM (inactive). The GI50 (A549) was > 100 µM (inactive), the GI50 (NCI-H522) was > 100 µM (inactive) and the GI50 (OVCAR-5) was 31.1 µM (inactive). The GI50 (SN12C) was > 100 µM (inactive), the GI50 (OVCAR-4) was > 100 µM (inactive) and the GI50 (U-251) was > 100 µM (inactive). The GI50 (SK-MEL-5) was > 100 µM (inactive), the GI50 (UO-31) was > 100 µM (inactive) and the GI50 (UACC-257) was > 100 µM (inactive). For the same compound, the GI50 (KM12) was > 100 µM (inactive), the GI50 (K562) was > 100 µM (inactive) and the GI50 (MOLT-4) was > 100 µM (inactive). The GI50 (EKVX) was > 100 µM (inactive), the GI50 (LXFL 529) was > 100 µM (inactive) and the GI50 (SK-OV-3) was > 100 µM (inactive). The GI50 (SW-620) was > 100 µM (inactive), the GI50 (HL-60) was > 100 µM (inactive) and the GI50 (M14) was > 100 µM (inactive). The GI50 (SF-539) was > 100 µM (inactive), the GI50 (HOP-62) was > 100 µM (inactive) and the GI50 (SK-MEL-2) was > 100 µM (inactive). The GI50 (RPMI-8226) was > 100 µM (inactive).
